The results in this text go back to patent US12194042B2, “Uses” (INTRA-CELLULAR THERAPIES, INC., priority 2018, dated 2025).

Entries after “also recorded” stand apart in the source; their conditions may differ.

Format in all cases: in vivo, human
In data set [1] the test system is patients with mild to moderate Parkinson's Disease (PD). As to the kind of experiment: Phase 1/2 randomized, double-blind, placebo-controlled, multiple rising dose clinical study: safety and tolerability. As for the experimental part: (§1) A Phase 1/2 randomized, double-blind, placebo-controlled, multiple rising dose clinical study was carried out to evaluate Compound 1 (below) in patients with mild to moderate Parkinson's Disease (PD).
(§2) The study is designed to evaluate the safety and tolerability of Compound 1 in patients who are maintained on stable PD therapy. Another objective is to evaluate the pharmacokinetic profile of Compound 1 and explore its potential utility to control motor fluctuations and to evaluate treatment of non-motor symptoms (e.g., daytime sleepiness, dysautonomia) associated with PD. Biomarkers of disease progression (i.e., inflammation) are assessed.
(§3) 40 patients with idiopathic PD are recruited for the study. Patients with mild to moderate PD (Hoehn and Yahr staging score of 1-3 assessed in the “On” state) maintained on stable PD therapy are randomly assigned to placebo or 5 cohorts of Compound 1 at 1 mg, 3 mg, 10 mg, 30 mg, and 90 mg administered orally once daily for 7 days. All patients participating in the study are maintained on their stable PD therapy (e.g., dopamine replacement therapies), some of which are taking more than one category of PD therapy. Of the 40 patients, there are 28 receiving carbidopa/L-dopa, 14 receiving a dopamine agonist, 5 receiving amantadine, and 3 receiving MAO inhibitors.

Data set [2] shares this test system. As to the kind of experiment: Unified Parkinson's Disease Rating Scale (MDS-UPDRS) in the Phase 1/2 study. How it is done: as §1, §3
(§4) The efficacy of Compound 1 in improving motor and non-motor symptoms of PD is measured using multiple scales, providing input from both subjects and site raters. Motor performance was improved and motor complications were reduced in the “On” state by Compound 1 relative to placebo treatment as assessed by the Movement Disorder Society Unified Parkinson's Disease Rating Scale (MDS-UPDRS) (FIG. 1). […] (FIGS. 3-4).

Data set [3] shares this test system. As to the kind of experiment: Unified Dyskinesia Rating Scale (UDysRS) in the Phase 1/2 study. The following applies: FIG. 2. As for the experimental part: as §1, §3, §4
Data set [4] has the same test system. Kind of data set: Hauser Patient Motor Diary in the Phase 1/2 study. The settings on record: rated by subjects, oral once daily for 7 days. How it is done:
as §1, §3, §4

For data set [5] the test system is unchanged. As to the kind of experiment: CISI-PD (Clinical Impression of Severity Index for PD) in the Phase 1/2 study. The settings on record: versus placebo; FIG. 4. How it is done: as §1, §3
A short description of data set [6]: Pharmacokinetic profile in the Phase 1/2 study. As for the experimental part: as §2, §3
Plasma steady state is achieved in the first 48 hours and supports once-a-day dosing for future efficacy trials.

The mark [7] stands for this setting: "On" state, relative to placebo, FIG. 1.

Take `CN1C(=O)c2c(nn(Cc3ccc(-c4cccc(F)n4)cc3)c2Nc2ccccc2)N2C1=N[C@@H]1CCC[C@@H]12` [Compound 1, (6aR,9aS)-5,6a,7,8,9,9a-hexahydro-5-methyl-3-(phenylamino)-2-((4-(6-fluoropyridin-2-yl)phenyl)methyl)-cyclopent[4,5]imidazo[1,2-a]pyrazolo[4,3-e]pyrimidin-4(2H)-one]: in data set [1] (1 mg to 90 mg orally once daily for 7 days), the serious adverse events result is “No serious adverse events”. For the same compound, the “induction or worsening of motor complications” value in data set [1] (PD patients receiving concomitant dopamine replacement therapies) is “did not induce or worsen motor complications”. Besides, the “effects on vital signs, cardiovascular or laboratory parameters” value in data set [1] (compared to placebo) was “no clinically significant effects”. In data set [1] (once-daily oral for 7 days, doses from 1 mg to 90 mg), the tolerability result is recorded as “generally well tolerated”. Also, the safety profile entry in data set [1] (once-daily oral for 7 days, no titration, 1 mg to 90 mg) was “favorable safety profile”. In data set [1] (patients on dopamine replacement therapies), the “side effects of dopamine replacement therapies” value is “reduces the side effects”. The “UPDRS scores at end of study (EOS)” value in data set [2] (30 days after cessation of treatment, FIG. 1) is reported as “Scores increase”. Moreover, in data set [2] (setting [7]), the “motor complications (MDS-UPDRS)” value is reported as “reduced” and the “motor performance (MDS-UPDRS)” value is “improved”. The UPDRS scores result in data set [2] (by day 7 of treatment, PD patients on stable PD therapy, FIG. 1) is given as “decrease scores”. The “MDS-UPDRS total scale scores” value in data set [2] (oral once daily for 7 days) is “reduces scores”. Also, the “motor symptoms (UPDRS Part III; clinician ratings of the motor manifestations of PD)” value in data set [2] (oral once daily for 7 days, on stable PD therapy) is “reductions; also recorded: reduces scores”. The “motor complications including dyskinesias (UPDRS Part IV subscale)” value in data set [2] (oral once daily for 7 days, Part IV data not shown) was “reductions; also recorded: reduces scores”. The “dyskinesia symptoms / motor complications measured by UDysRS” value in data set [3] (oral once daily for 7 days) is recorded as “reductions; also recorded: reduces dyskinesia symptoms”. For the same compound, the “Objective UDysRS Total Score” value in data set [3] (subjects with dyskinesia at baseline, after treatment) is “Improves”. Also, the “total On time (Hauser Patient Motor Diary)” value in data set [4] was “increased”. In addition, the “"On" time without dyskinesias (Hauser Patient Motor Diary)” value in data set [4] (versus placebo) is “increases on-time without causing dyskinesia; also recorded: increased”. Further, the “CISI-PD Motor Complications Score” value in data set [5] is “reductions; also recorded: decreased”. The “time to plasma steady state” value in data set [6] (once daily oral dosing) is at most 48 h. The “pharmacokinetics (dose linearity)” value in data set [6] (parent drug and metabolites, across 1 mg to 90 mg) is “linear pharmacokinetics”.
